# Results taken from patent US6967201B1, “Benzofurylpiperazines and benzofurylhomopiperazines: serotonin agonists” (Eli Lilly and Company, priority 1999, dated 2005).
row,Structure (SMILES),melting point
1,CC1(C)CNCCN1c1cc(F)cc2ccoc12.O=C(O)/C=C/C(=O)O,162 to 165 °C
2,C[C@@H]1CN(c2ccc(F)c3ccoc23)CCN1.O=C(O)C(=O)O,192 °C (dec.)
3,C[C@H]1CN(c2ccc(F)c3ccoc23)CCN1.O=C(O)C(=O)O,191 °C (dec.)
